Three compounds from patent US12577232B2, “N-heterocycle substituted tryptamine derivatives and methods of using” (ENVERIC B[…] INC., priority 2024, dated 2026) can be followed below.

One test has as its target T1, 5-HT1A receptor (Homo sapiens, UniProt P08908).
T1 construct: purchased Perkin Elmer 6110501400UA
T1 sequence (P08908 1-422): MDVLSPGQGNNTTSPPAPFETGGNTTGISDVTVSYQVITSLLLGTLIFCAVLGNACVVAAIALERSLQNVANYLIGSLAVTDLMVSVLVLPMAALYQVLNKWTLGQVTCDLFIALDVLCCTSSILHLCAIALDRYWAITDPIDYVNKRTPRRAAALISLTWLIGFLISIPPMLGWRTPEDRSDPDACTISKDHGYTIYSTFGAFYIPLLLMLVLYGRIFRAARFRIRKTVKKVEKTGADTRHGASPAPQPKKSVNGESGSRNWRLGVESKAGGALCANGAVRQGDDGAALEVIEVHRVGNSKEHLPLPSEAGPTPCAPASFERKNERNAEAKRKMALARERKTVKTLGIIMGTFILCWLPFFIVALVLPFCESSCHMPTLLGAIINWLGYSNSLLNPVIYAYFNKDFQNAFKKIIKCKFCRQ
Put plainly: 5-HT1A receptor radioligand competition assay (SPA, [3H]8-hydroxy-DPAT). The test is classed as binding. To be noted: 0.5 nM hot 8-hydroxy-DPAT; membranes containing 5-HT1A. As to the method: 5-HT1A receptor. […] After incubation, the samples were read on a MicroBeta 2 Microplate Counter (perkinelmer.com). Non-specific binding was carried out in the presence of 100 μM of metergoline (M3668-500MG, Sigma-Aldrich). Equilibrium binding constant for 8-hydroxy-DPAT (KD) was determined from a saturation binding curve using one-site saturation binding analysis from GraphPad PRISM software (Version 9.2.0). Test compound was dissolved to 100 mM in dimethylsulfoxide (DMSO), and dilutions were carried out in assay buffer. […] Ki values were calculated from the competition displacement data using the competitive binding analysis from GraphPad PRISM software. […] Conversely, blank preparations lacking any drug (simply termed ‘DMSO’ samples) were used as negative controls, in addition to those containing tryptophan which is not known to bind the 5-HT1A receptor.
Background: Displacement assays read how much labelled ligand stays bound in the presence of the test substance.

Another test addresses T2, 5-HT2A receptor (Homo sapiens, UniProt P28223).
T2 construct: purchased PerkinElmer ES-313-M400UA
Description: Functional cell-based 5-HT2A assay, antagonism mode (CHO-K1/5-HT2A, 100 nM serotonin, calcium flux). To be noted: CHO-K1/5-HT2A cells, with 100 nM serotonin. From the text: A variety of 5-HT2A receptor engagement modes have been correlated with positive outcomes in the treatment of neurological disorders. While agonism is associated with a host of favourable effects, antagonizing the 5-HT2A receptor is also an attractive pharmacological approach. For example, antagonism is known to alleviate both dyskinesisa and psychosis in Parkinson's Disorder and holds promise for other psychiatric diseases (Mestre et al., 2013, Expert Opin. Investig. Drugs 22:411-421). Similarly positive outcomes are noted for inverse agonists (Cummings et al., 2014, Lancet, 383:533-540; Roberts, 2006, Curr. Opin. Invest. Drugs 7:653-660). […]
Stimulation of 5-HT2A coupled to the Gq family proteins leads to activation of the phospholipase C (PLC) pathway, ultimately resulting in the accumulation of cytosolic calcium (Cussac et al., Europ. J. Pharmacol., 2008, 594 (1-3), 32-38). […] Kinetic increases in intracellular calcium levels were measured immediately after addition of ligands every 6.4 s for a total of 3 min using the FlexStation 3 multimode microplate reader and SoftMax Pro 7.1 analysis software (Molecular Devices, moleculardevices.com). […] IC50 values were calculated from the normalized data from GraphPad PRISM software. […]

T2 sequence (P28223 whole entry): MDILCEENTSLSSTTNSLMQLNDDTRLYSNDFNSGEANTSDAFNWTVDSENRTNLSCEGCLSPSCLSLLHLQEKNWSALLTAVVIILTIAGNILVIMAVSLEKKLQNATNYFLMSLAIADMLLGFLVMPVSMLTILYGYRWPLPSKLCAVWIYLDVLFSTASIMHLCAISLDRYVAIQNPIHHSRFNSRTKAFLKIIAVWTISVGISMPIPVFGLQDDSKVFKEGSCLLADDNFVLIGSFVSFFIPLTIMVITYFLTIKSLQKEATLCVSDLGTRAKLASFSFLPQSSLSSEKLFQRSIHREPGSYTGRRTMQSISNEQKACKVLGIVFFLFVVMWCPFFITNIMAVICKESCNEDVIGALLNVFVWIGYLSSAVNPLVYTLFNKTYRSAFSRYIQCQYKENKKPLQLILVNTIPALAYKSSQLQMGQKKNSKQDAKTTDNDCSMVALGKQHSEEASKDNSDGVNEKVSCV

Turning to `CN(C)CCc1c[nH]c2cc(N3CCC3)ccc12` [Compound (XII)], the affinity on 5-HT1A receptor corresponds to a Ki of 20.8 µM.
Take `CN(C)CCc1c[nH]c2cc(F)cc(N3CCOCC3)c12` [Compound (XV)]: the Ki (as a rule, the dissociation constant of the complex between target and ligand, obtained from inhibition or displacement) on 5-HT1A receptor was 1.83 µM. The “engagement at the 5-HT2A receptor, antagonist mode” value on 5-HT2A receptor is listed as “antagonism”.
As for `CN(C)CCc1c[nH]c2cc(N3CCCC3)cc(F)c12` [Compound (XVIII)], at 5-HT1A receptor, the Ki was 18.1 µM.
